In patent US20170114070A1, “INHIBITORS OF THE WNT SIGNALLING PATHWAYS” (Bayer Pharma Aktiengesellschaft, priority 2014, published 2017):

How the values were obtained:
[1] = tested on: HCT116 FOPFlash (FOP control vector, non-functional TCF elements); assay: Cellular control reporter assay, HCT116 FOP control vector; assay type: cell-based; details: Homo sapiens, HCT-116; HCT116 stably transfected with FOP control vector; 36 hours incubation; luciferase expression; dilution series from 50 μM
Procedure: (§1) In a parallel approach, HCT116 cells were cotransfected with the FOP control vector and pcDNA3. The FOP vector is identical to the TOP construct, but it contains instead of functional TCF elements a randomized, non-functional sequence. For this transfection a stable transfected cell line was generated as well.
(§2) In preparation of the assay, the two cell lines were plated 24 hours before at 10000 cells per well of a 384 micro titre plate (MTP) in 30 μL growth medium. Selective inhibitory activity for small molecules on the mutated Wnt pathway was determined after parallel incubation of both (TOP and FOP) HCT116 reporter cell lines with a compound dilution series from 50 μM to 15 nM in steps of 3.16-fold dilutions in CAFTY buffer (130 mM NaCl, 5 mM KCl, 20 mM HEPES, 1 mM MgCl2, 5 mM NaHCO3, pH 7.4) containing 2 mM Ca^2+ and 0.01% BSA. The compounds were thereby serially prediluted in 100% DMSO and thereafter in addition 50 fold into the CAFTY compound dilution buffer (described above). From this dilution 10 μL were added to the cells in 30 μL growth medium and incubated for 36 hours at 37° C. and 5% CO2. Thereafter luciferase assay buffer (1:1 mixture of luciferase substrate buffer (20 mM Tricine, 2.67 mM MgSO4, 0.1 mM EDTA, 4 mM DTT, 270 μM Coenzyme A, 470 μM Luciferin, 530 μM ATP, ph adjusted to pH 7.8 with a sufficient volume of 5M NaOH) and Triton buffer (30 mL Triton X-100, 115 mL glycerol, 308 mg Dithiothreitol, 4.45 g Na2HPO4.2H2O, 3.03 g TRIS HCl, ad 1 l H20, pH 7.8) was added as equal volume to the compound solution on the cells to determine luciferase expression as a measure of Wnt signaling activity in a luminometer.

[2] = tested on: constitutive active Wnt pathway (HCT116 TOPFlash); assay: Cellular reporter assay, HCT116 Super TopFlash (constitutive active Wnt pathway); assay type: cell-based; details: Homo sapiens, HCT-116; HCT116 stably transfected with Super TopFlash vector; 36 hours incubation; luciferase expression
Procedure: In order to discover and characterize small molecules which inhibit the constitutive active colorectal cancer cell (CRC) Wnt pathway, a cellular reporter assay was employed. The corresponding assay cell was generated by transfection of the colorectal cancer cell line HCT116 (ATCC, #CCL-247) with the Super TopFlash vector (Morin, Science 275, 1997, 1787-1790; Molenaar et al., Cell 86 (3), 1996, 391-399). The HCT116 cell line is cultivated at 37° C. and 5% CO2 in DMEM/F-12 (Life Technologies, #11320-074), supplemented with 2 mM glutamine, 20 mM HEPES, 1.4 mM pyruvate, 0.15% Na-bicarbonate and 10% foetal bovine serum (GIBCO, #10270), this cancer cell line is pathophysiological relevant since it carries a deletion of position S45 in the β-catenin gene, leading to constitutive active Wnt signaling. Stable transfectants were generated by cotransfection with pcDNA3 and selection of stable transfected cells with 1 mg/ml G418.
as §1, §2

Structure (SMILES) | IC50 [1] | IC50 [2]
O=C(CN1CCOCC1)Nc1cc(C(=O)Nc2ccc(-c3cccnc3F)nn2)ccc1OC(F)(F)F [Example 17, N-[6-(2-fluoropyridin-3-yl)pyridazin-3-yl]-3-[(morpholin-4-ylacetyl)amino]-4-(trifluoromethoxy)benzamide] | ≥ 50 µM | 0.418 µM
CN1CCN(CC(=O)Nc2cc(C(=O)Nc3cnc(-c4cccc(F)c4)cn3)ccc2OC(F)(F)F)CC1 [Example 59, N-[5-(3-fluorophenyl)pyrazin-2-yl]-3-{[(4-methylpiperazin-1-yl)acetyl]amino}-4-(trifluoromethoxy)benzamide] | ≥ 50 µM | 3 µM
O=C(CN1CCOCC1)Nc1cc(C(=O)Nc2cnc(-c3cccc(Cl)c3)cn2)ccc1OC(F)(F)F [Example 35, N-[5-(3-chlorophenyl)pyrazin-2-yl]-3-[(morpholin-4-ylacetyl)amino]-4-(trifluoromethoxy)benzamide] | ≥ 5.77 µM | 0.116 µM
Cc1ccccc1-c1cnc(NC(=O)c2ccc(OC(F)(F)F)c(NC(=O)CN3CCOCC3)c2)cn1 [Example 39, N-[5-(2-methylphenyl)pyrazin-2-yl]-3-[(morpholin-4-ylacetyl)amino]-4-(trifluoromethoxy)benzamide] | 24.9 µM | 0.225 µM
O=C(CN1CCOCC1)Nc1cc(C(=O)Nc2cnc(-c3ccccc3F)cn2)ccc1OC(F)(F)F [Example 25, N-[5-(2-fluorophenyl)pyrazin-2-yl]-3-[(morpholin-4-ylacetyl)amino]-4-(trifluoromethoxy)benzamide] | 23.1 µM | 4.62 µM
CN1CCN(CC(=O)Nc2cc(C(=O)Nc3ccc(-c4cccnc4F)nn3)ccc2OC(F)(F)F)CC1 [Example 12, N-[6-(2-fluoropyridin-3-yl)pyridazin-3-yl]-3-{[(4-methylpiperazin-1-yl)acetyl]amino}-4-(trifluoromethoxy)benzamide] | ≥ 50 µM | 0.12 µM
Nc1ccc(-c2cnc(NC(=O)c3ccc(OC(F)(F)F)c(NC(=O)CN4CCOCC4)c3)cn2)cn1 [Example 46, N-[5-(6-aminopyridin-3-yl)pyrazin-2-yl]-3-[(morpholin-4-ylacetyl)amino]-4-(trifluoromethoxy)benzamide] | ≥ 50 µM | 16.8 µM
O=C(CN1CCOCC1)Nc1cc(C(=O)Nc2cnc(-c3ccccn3)cn2)ccc1OC1CC1 [Example 50, 4-(cyclopropyloxy)-3-[(morpholin-4-ylacetyl)amino]-N-[5-(pyridin-2-yl)pyrazin-2-yl]benzamide] | ≥ 50 µM | 16.9 µM
O=C(CN1CCOCC1)Nc1cc(C(=O)Nc2cnc(-c3ccccn3)cn2)ccc1OC(F)(F)F [Example 61, 3-[(morpholin-4-ylacetyl)amino]-N-[5-(pyridin-2-yl)pyrazin-2-yl]-4-(trifluoromethoxy)benzamide] | ≥ 50 µM | ≥ 50 µM
CN1CCN(CC(=O)Nc2cc(C(=O)Nc3cnc(-c4cnc(N)cn4)cn3)ccc2OC(F)(F)F)CC1 [Example 60, N-(5′-amino-2,2′-bipyrazin-5-yl)-3-{[(4-methylpiperazin-1-yl)acetyl]amino}-4-(trifluoromethoxy)benzamide] | ≥ 50 µM | 4.1 µM
CN1CCN(CC(=O)Nc2cc(C(=O)Nc3cnc(-c4cccc(Cl)c4)cn3)ccc2OC(F)(F)F)CC1 [Example 48, N-[5-(3-chlorophenyl)pyrazin-2-yl]-3-{[(4-methylpiperazin-1-yl)acetyl]amino}-4-(trifluoromethoxy)benzamide] | 7.73 µM | 0.26 µM
CN1CCN(CC(=O)Nc2cc(C(=O)Nc3ncc(-c4ccccc4)cn3)ccc2OC(F)(F)F)CC1 [Example 19, 3-{[(4-methylpiperazin-1-yl)acetyl]amino}-N-(5-phenylpyrimidin-2-yl)-4-(trifluoromethoxy)benzamide] | ≥ 50 µM | 0.325 µM
Cc1cccc(F)c1-c1cnc(NC(=O)c2ccc(OC(F)(F)F)c(NC(=O)CN3CCOCC3)c2)cn1 [Example 58, N-[5-(2-fluoro-6-methylphenyl)pyrazin-2-yl]-3-[(morpholin-4-ylacetyl)amino]-4-(trifluoromethoxy)benzamide] | ≥ 50 µM | 2.9 µM
O=C(CN1CCOCC1)Nc1cc(C(=O)Nc2ccc(-c3cccnc3)nn2)ccc1OC(F)(F)F [Example 14, 3-[(morpholin-4-ylacetyl)amino]-N-[6-(pyridin-3-yl)pyridazin-3-yl]-4-(trifluoromethoxy)benzamide] | ≥ 50 µM | 0.054 µM
Nc1cc(-c2cnc(NC(=O)c3ccc(OC(F)(F)F)c(NC(=O)CN4CCOCC4)c3)cn2)ccn1 [Example 55, N-[5-(2-aminopyridin-4-yl)pyrazin-2-yl]-3-[(morpholin-4-ylacetyl)amino]-4-(trifluoromethoxy)benzamide] | 26.2 µM | 17.2 µM
CN1CCN(CC(=O)Nc2cc(C(=O)Nc3ncc(-c4ccccc4)nn3)ccc2OC(F)(F)F)CC1 [Example 18, 3-{[(4-methylpiperazin-1-yl)acetyl]amino}-N-(6-phenyl-1,2,4-triazin-3-yl)-4-(trifluoromethoxy)benzamide] | 20 µM | 0.016 µM
CN1CCN(CC(=O)Nc2cc(C(=O)Nc3cnc(-c4cccnc4)cn3)ccc2OC(F)(F)F)CC1 [Example 22, 3-{[(4-methylpiperazin-1-yl)acetyl]amino}-N-[5-(pyridin-3-yl)pyrazin-2-yl]-4-(trifluoromethoxy)benzamide] | 38 µM | 0.017 µM
CN1CCN(CC(=O)Nc2cc(C(=O)Nc3cnc(-c4ccccn4)cn3)ccc2OC(F)(F)F)CC1 [Example 40, 3-{[(4-methylpiperazin-1-yl)acetyl]amino}-N-[5-(pyridin-2-yl)pyrazin-2-yl]-4-(trifluoromethoxy)benzamide] | ≥ 50 µM | 0.153 µM
CN1CCN(CC(=O)Nc2cc(C(=O)Nc3cnc(-c4cc(F)cc(F)c4)cn3)ccc2OC(F)(F)F)CC1 [Example 43, N-[5-(3,5-difluorophenyl)pyrazin-2-yl]-3-{[(4-methylpiperazin-1-yl)acetyl]amino}-4-(trifluoromethoxy)benzamide] | 27.6 µM | 0.155 µM
Cc1ccncc1-c1cnc(NC(=O)c2ccc(OC(F)(F)F)c(NC(=O)CN3CCOCC3)c2)cn1 [Example 45, N-[5-(4-methylpyridin-3-yl)pyrazin-2-yl]-3-[(morpholin-4-ylacetyl)amino]-4-(trifluoromethoxy)benzamide] | ≥ 50 µM | 16.7 µM
CN1CCN(CC(=O)Nc2cc(C(=O)Nc3cnc(-c4ccncc4)cn3)ccc2OC(F)(F)F)CC1 [Example 28, 3-{[(4-methylpiperazin-1-yl)acetyl]amino}-N-[5-(pyridin-4-yl)pyrazin-2-yl]-4-(trifluoromethoxy)benzamide] | ≥ 50 µM | 0.064 µM
O=C(CN1CCOCC1)Nc1cc(C(=O)Nc2cnc(-c3ccccc3Cl)cn2)ccc1OC(F)(F)F [Example 33, N-[5-(2-chlorophenyl)pyrazin-2-yl]-3-[(morpholin-4-ylacetyl)amino]-4-(trifluoromethoxy)benzamide] | 31.5 µM | 0.115 µM
O=C(CN1CCOCC1)Nc1cc(C(=O)Nc2ncc(-c3ccccc3)cn2)ccc1OC1CC1 [Example 34, 4-(cyclopropyloxy)-3-[(morpholin-4-ylacetyl)amino]-N-(5-phenylpyrimidin-2-yl)benzamide] | ≥ 50 µM | 12.6 µM
CN1CCN(CC(=O)Nc2cc(C(=O)Nc3cnc(-c4ccnc(N)c4)cn3)ccc2OC(F)(F)F)CC1 [Example 56, N-[5-(2-aminopyridin-4-yl)pyrazin-2-yl]-3-{[(4-methylpiperazin-1-yl)acetyl]amino}-4-(trifluoromethoxy)benzamide] | ≥ 50 µM | 2 µM
CN1CCN(CC(=O)Nc2cc(C(=O)Nc3cnc(-c4cncnc4)cn3)ccc2OC(F)(F)F)CC1 [Example 49] | ≥ 50 µM | 0.26 µM
